According to BigSolDB 2.1:

Nc1cccc2c(N)cccc12
solubility (mole fraction)
Conditions	273.15 K	278.15 K	283.15 K	288.15 K	293.15 K	298.15 K	303.15 K	308.15 K	313.15 K
in acetonitrile	0.00186	0.00238	0.00305	0.00382	0.00477	0.00577	0.00695	0.00834	0.00983
in ethyl acetate	0.00404	0.00487	0.00569	0.00662	0.00759	0.00869	0.00992	0.0113	0.0128
in isopropanol	0.000471	0.000564	0.000684	0.000807	0.000947	0.0011	0.00126	0.00144	0.00163
in methanol	0.00112	0.00132	0.00154	0.00181	0.00209	0.0024	0.00278	0.0032	0.00369
in n-propanol	0.00064	0.000762	0.000895	0.00105	0.00122	0.00142	0.00165	0.00192	0.00224
in toluene	0.000262	0.000345	0.000445	0.00056	0.000689	0.00084	0.00102	0.0012	0.0014

Nc1cccc2cccc(N)c12
solubility (mole fraction)
Conditions	273.15 K	278.15 K	283.15 K	288.15 K	293.15 K	298.15 K	303.15 K	308.15 K	313.15 K
in acetonitrile	0.0518	0.065	0.0798	0.0966	0.116	0.139	0.166	0.197	0.231
in ethyl acetate	0.0765	0.091	0.107	0.127	0.152	0.179	0.212	0.252	0.295
in isopropanol	0.0221	0.0277	0.0338	0.0407	0.0491	0.0588	0.0688	0.0807	0.0936
in methanol	0.018	0.0219	0.0267	0.0327	0.0391	0.0467	0.0551	0.0647	0.0754
in n-propanol	0.0385	0.0484	0.0594	0.0718	0.0868	0.103	0.121	0.142	0.166
in toluene	0.0423	0.0512	0.0654	0.0803	0.0966	0.117	0.138	0.163	0.189
